According to ChEMBL document CHEMBL5344423, “Alstoboonine, an Ulean-Type Indole Alkaloid from Alstonia boonei Leaves” (J Nat Prod, 2024):
Converted amounts (≈) assume the structure as drawn. One block for each molecule: values may come before it. The source made the active and inactive calls. The rule behind the calls is not given here.

Columns and labels:
[1] = tested on: Caenorhabditis elegans; assay: Anthelmintic activity against Caenorhabditis elegans N2 Bristol assessed as mortality at 40 mM relative to control
[2] = tested on: Caenorhabditis elegans; assay: Anthelmintic activity against Caenorhabditis elegans N2 Bristol assessed as lethality; type: functional
[3] = tested on: Caenorhabditis elegans; assay: Anthelmintic activity against Caenorhabditis elegans N2 Bristol assessed as mortality at 10 mM relative to control; type: functional
[4] = Cytotoxicity against human MCF7 cells assessed as reduction in cell viability after 48 hrs by MTT assay; type: toxicity, cell-based
[5] = tested on: Trypanosoma cruzi; assay: Antiprotozoal activity against Trypanosoma cruzi Tulahuen C4 amastigotes measured after 96 hrs by microplate reader analysis; type: functional, organism-based; details: Tulahuen C4, 96 h
[6] = tested on: Caenorhabditis elegans; assay: Anthelmintic activity against Caenorhabditis elegans N2 Bristol assessed as lethality on young adult worms at 10 mM incubated for 48 hrs; type: functional, organism-based
[7] = tested on: Leishmania donovani; assay: Antiprotozoal activity against Leishmania donovani MHOM-ET-67/L82 amastigotes incubated for 72 hrs by microplate reader analysis; type: functional, organism-based; details: MHOM-ET-67/L82, 72 h
[8] = Cytotoxicity against rat L6 cells incubated for 72 hrs by Resazurin-dye based assay; type: toxicity, cell-based
[9] = tested on: Plasmodium falciparum; assay: Antiprotozoal activity against Plasmodium falciparum NF54 intraerythrocytic forms incubated for 48 hrs by 3H-hypoxanthine incorporation assay; type: functional, organism-based
[10] = tested on: Trypanosoma brucei; assay: Antiprotozoal activity against bloodstream form Trypanosoma brucei STIB 900 trypomastigotes […] by microplate reader analysis; type: functional, organism-based

SMILES: c1ccc([C@H]2CN3CCSC3=N2)cc1 [LEVAMISOLE]
mortality at 40000 µM [1]: 71%

SMILES: COC(=O)/C1=C/OC2=Nc3c(OC)cccc3[C@@]23CCN2C[C@@H]([C@H](C)O)[C@@H]1CC23
LC50 [2]: 400 µM | mortality at 10000 µM [3]: 100% | IC50 at 48 h [4]: > 100 µM

IC50 [5]: 0.69 µg/mL (≈ 2.65 µM)
SMILES: O=C(Cn1ccnc1[N+](=O)[O-])NCc1ccccc1 [BENZNIDAZOLE]

SMILES: COC(=O)/C1=C/OC2=Nc3c(OC)cccc3[C@@]23CCN2C[C@@H](C(C)=O)[C@@H]1CC23
IC50 at 48 h [4]: > 100 µM

SMILES: COC(=O)C1=C2Nc3c(OC)cccc3[C@@]23CCN2C[C@@H]([C@H](C)O)[C@@H]1C[C@H]23
Activity [6]: inactive | IC50 at 48 h [4]: > 100 µM

SMILES: COC(=O)C1=C2Nc3c(OC)cccc3[C@@]23CCN2C[C@@H](C(C)=O)[C@@H]1C[C@H]23
IC50 at 48 h [4]: > 100 µM

SMILES: COC(=O)[C@@]1(c2cc3ccccc3[nH]2)COCC=C2CN(C)CC[C@@H]21 [6,7-SECO-ANGUSTILOBINE B]
IC50 at 48 h [4]: > 100 µM

IC50 [7]: 0.26 µg/mL (≈ 0.638 µM)
SMILES: CCCCCCCCCCCCCCCCOP(=O)([O-])OCC[N+](C)(C)C [MILTEFOSINE]

SMILES: C/C=C1/CN2CC[C@@]34C(=Nc5c(OC)cccc53)O/C=C(/C(=O)OC)[C@H]1CC24
Activity [6]: inactive | IC50 at 48 h [4]: > 100 µM

IC50 [9]: 2.4 µg/mL (≈ 7.05 µM) | IC50 [7]: 75 µg/mL (≈ 220 µM) | IC50 [10]: 20 µg/mL (≈ 58.8 µM) | IC50 [5]: > 100 µg/mL
SMILES: C=CC12OC[C@@]3(C(=O)OC)c4[nH]c5ccccc5c4C1NCCC23O
IC50 at 72 h [8]: 50 µg/mL (≈ 147 µM) | IC50 at 48 h [4]: > 100 µM

SMILES: C=C[C@@]12CN3CC[C@]1(O)[C@@](C(=O)OC)(CO2)c1[nH]c2ccccc2c1C3
Activity [6]: inactive | IC50 at 48 h [4]: 26 µM

SMILES: COC(=O)[C@@]1(c2cc3ccccc3[nH]2)COC[C@H]2O[C@]23CN(C)CC[C@@H]31
IC50 at 48 h [4]: > 100 µM
